Results taken from patent US20170095512A1, “METHODS OF INDUCING MYELINATION AND MATURATION OF OLIGODENDROCYTES” (KADIMASTEM LTD., priority 2014, published 2017).
Entries after “also recorded” stand apart in the source; their conditions may differ.

Experiments:
[1] = system: human OPC derived from ES cells (O4+ cells); assay: hOPC differentiation assay, O4+ cells (immunostaining, high content screening); assay type: cell-based
Procedure: In order to initiate differentiation 20,000 GPCs were seeded in each well of Matrigel coated plates of 96 wells, or on PolyD-Lysine/laminin (PDL/lam)-coated 96 well plates. Cells were grown in GM media for two to three days. Then GM was replaced by differentiation medium without growth factors, (DMEM/F12, 1% B27, 0.5% N2, Vitamin C (Sigma, 50 ug/ml). Differentiation medium was supplemented with the following tested compounds: […] All media were replaced every other day. Oligodendrocytes were characterized by the presence of the antigen detected by the monoclonal antibody O4 (IgM (R&D). Living cells reacted with O4 antibody diluted 1/200 in medium without growth factors (50 ul/well) and left for 40 minutes in the incubator at 37° C., washed once with GM, fixed with PFA 4% (170 ul per well) for 20 minutes at room temperature, washed 3 times with PBS. Dapi diluted to 0.5 ug/ml was introduced in the second wash for 10 min Afterwards the preparation was blocked with 5% normal goat serum in PBS-- for 20 min, washed and reacted with goat anti mouse IgM Ab-FITC conjugated (Millipore cat A[…]) diluted 1/500, for 45 minutes at room temperature, and washed three times with PBS--. ArrayScan VTI HCS reader system (Cellomis, Thermo-scientific) was used for scanning at least 20 fields for each tested well under 10× objective in both assays (differentiation and myelination). Cellomics Neural profiling bio-application was used for processing and analyzing the images. For differentiation assay, the following parameters were tested: number and percentage of O4+ cells, number of processes, processes length and number of branching points. For myelination assay, the same morphological parameters were tested and in addition: areas of myelinated axons in pixels (MBP&NF overlap area) and Number of myelinated regions (MBP&NF overlap count) were also analyzed. Modifications in the Neuro-profiling bio-application were conducted for this specific purpose. T-test analysis was used to compare between treatments. The 4-parameter Hill-Slope curve fittings were generated by GraphPad Prism software using least squares fitting method and EC50 values were calculated.

[2] = system: hPSC derived oligodendrocytes co-cultured with rodent dorsal root ganglia neurons (MBP+ cells); assay: Co-culture myelination assay (human oligodendrocytes with DRG neurons), MBP staining; assay type: cell-based
Procedure: ArrayScan VTI HCS reader system (Cellomis, Thermo-scientific) was used for scanning at least 20 fields for each tested well under 10× objective in both assays (differentiation and myelination). Cellomics Neural profiling bio-application was used for processing and analyzing the images. For differentiation assay, the following parameters were tested: number and percentage of O4+ cells, number of processes, processes length and number of branching points. For myelination assay, the same morphological parameters were tested and in addition: areas of myelinated axons in pixels (MBP&NF overlap area) and Number of myelinated regions (MBP&NF overlap count) were also analyzed. Modifications in the Neuro-profiling bio-application were conducted for this specific purpose. T-test analysis was used to compare between treatments. The 4-parameter Hill-Slope curve fittings were generated by GraphPad Prism software using least squares fitting method and EC50 values were calculated.
DRG dissociated cells from mouse embryonic day 13 (E13) or rat embryonic day (E15) were seeded on matrigel and PDL-coated 96 well plates (20,000 cells/well). In order to allow long culture and co-culture of neuron axons in 96 well plates without de-attachment, a method where the periphery of each well was scratched leaving sticky edges (and smooth surface) was developed. This scratch methodology enables long lasting culture of neuron axons on 96 well format. Once DRG neurons were seeded they were fed with Neurobasal medium (Gibco) supplemented with B27 (Gibco) and 50 ng/ml NGF (Alomone labs) (NB medium) for 2-3 weeks prior hES-OPC addition. […]
For testing maturation and myelination capacity of the hPSC derived oligodendrocytes, a co-culture system between rodent dorsal root ganglia (DRGs) and hPSCs derived oligodendrocytes was used. The number of MBP+ cells (MBP, a marker of oligodendrocytes' myelin) and Myelin formation (measured by co-localization area between MBP and neurofilament positive neuronal axons) was quantified.

With c1ccc2c(-c3cnn4cc(-c5ccc(N6CCNCC6)cc5)cnc34)ccnc2c1 [LDN-193189] the “O4+ cells number / conversion of Olig2+ cells into O4+ cells (summary statement)” value [1] was “increased the number of O4+ and Olig2+ cells; also recorded: stimulates”, the “number of O4+ cells” value ([1]; day 21, Noggin 50 ng/ml + PDGF 20 ng/ml, Dorsomorphin 2 μM, LDN-193189 125 nM) was “increase in the number of O4+ cells” and the “number of processes per cell” value ([1]; dose dependent manner) was “increased”. For the same compound, the “total length of processes” value ([1]; dose dependent manner) was “increased”, the “MBP+ cells number / differentiation into MBP+ cells (summary statement)” value [2] was “increased also the number of MBP+ cells” and the “number of MBP+ cells (mature oligodendrocytes)” value ([2]; 14 days co-culture, 125 nM LDN-193189 added to MYL media with 50 ng/ml Noggin, vs Noggin alone) was “increased the number of MBP+ cells; also recorded: significant increase”. For the same compound, the total cell count ([2]; 14 days co-culture, Noggin+LDN-193189 vs Noggin alone) was “no difference was observed”.
